Test results from US5336485A, “Method for protecting animals against tacrine induced cytotoxic injury using sterol compounds” (priority 1993, dated 1994).
Like-named read-outs stand apart in the source and are kept apart here.

Assays:
rat hepatocytes [1] = test: Intracellular K+ of rat hepatocytes exposed to EMS; assay type: cell-based
Excerpt: Medzhradsky, Biochem. Med. 13:164 (1975), has noted that the cell's ability to maintain its intracellular concentration of potassium (K^+) is an excellent indicator of the metabolic integrity of the cell. A concentration gradient exists for K^+ with greater concentrations found intracellularly. To maintain this gradient, the cell is dependent on the action of the Na^+ -K^+ ATPase pump and an adequate supply of ATP. As cellular ATP levels decline, the ATPase pump is unable to maintain the gradient resulting in the loss of intracellular K^+ by equilibration with the extracellular space. Because the maintenance of cellular metabolic processes is essential to the continual repair and survival of cells, organ systems, and organisms, the effect of alpha-TS on the metabolic integrity of rat liver cells during a toxic insult was investigated by measuring intracellular K^+ levels. […] At each time-point, rapid separation of viable from non-viable hepatocytes and medium was accomplished by the dibutyl phthalate centrifugation method. Cell viability was monitored hourly by measuring LDH leakage with a Cobas Analyzer and intracellular [K^+ ]with a flame photometer. […] Lipid peroxidation was determined by measuring TBA reactants in the medium. […] Alltech, Avondale, Pa.). […] Following the addition of 0.2 ml 4 M HC1, the neutralized KOH-MeOH extracted with 0.8 ml hexane. […] A standard curve for each tocopherol congener was run with every assay. […] Only viable cells were monitored in the laboratory procedures.

rat hepatocytes [2] = test: EMS-induced cytotoxicity (LDH leakage/cell death) in rat hepatocyte suspensions; details: for Protection From Toxic Injury: EMS 3 h; for inhibition at 25 µM: Rattus norvegicus, Hepatocyte
[3] = tested on: mouse melanoma cells B-16; details: cited from earlier work
[4] = tested on: human neuroblastoma cells; details: 10 μM; cited from earlier work
rat hepatocytes [5] = test: Cytotoxicity of various toxic insults (A23187, cadmium, O2, doxorubicin, CCl4, hypoxia) in rat hepatocytes; assay type: cell-based
Procedure: Only viable cells were monitored in the laboratory procedures.
In vitro experiments were performed to determine if alpha-TS could protect cells from different toxic insults. Under physiological conditions, rat hepatocytes were incubated with medium containing 25 μM alpha-TS. The hepatocytes were exposed to EMS, a potent mutagen and alkylating agent; the ionophore A23187, a membrane active compound that permits the equilibration of divalent cations across cell membranes; cadmium, a heavy metal, environmental contaminant, and known carcinogen who's mechanism of toxicity remains unknown; 95% O2, an excessive oxygen insult that produces an abundance of toxic oxygen free radicals and reactive oxygen intermediates in the cell; doxorubicin (adriamycin), a clinically important antitumor agent with cytotoxic effects proposed to result from its metabolic activation and the generation or reactive oxygen species; carbon tetrachloride (CCl4); and hypoxia (an absence of oxygen followed by reoxygenation).

[6] = 50 mM EMS + 25 μM alpha-TS + 100 μM Bis-(p-nitrophenyl) phosphate
[7] = 50 mM EMS + 25 μM alpha-TS + 100 μM Diethyl p-nitrophenyl phosphate
[8] = rat hepatocytes, 25 μM, 50 mM EMS

## Cc1c(C)c2c(c(C)c1OC(=O)CCC(=O)O)CC[C@@](C)(CCC[C@H](C)CCC[C@H](C)CCCC(C)C)O2 [alpha-TS, d-alpha-tocopheryl succinate]
Rat hepatocytes [1]; 50 mM EMS + 25 μM alpha-TS
  % Initial Intracellular [K+]: 93 ± 11 % Initial
Rat hepatocytes [1]; [6]
  % Initial Intracellular [K+]: 14 ± 6 % Initial
Rat hepatocytes [1]; [7]
  % Initial Intracellular [K+]: 26 ± 2 % Initial
Rat hepatocytes [1]; 50 mM EMS, 5 Hrs, concentrations as cell death (Table 15)
  % Initial Intracellular [K+]: 86 ± 6 % Initial
Rat hepatocytes [1]; [8]
  intracellular K+ during EMS insult: no loss of intracellular K+
Rat hepatocytes [2]; 0.5 μM, EMS
  protection against loss of viability: 85%
Rat hepatocytes [2]; 2 μM, EMS
  protection against loss of viability and metabolic performance: 100%
Rat hepatocytes [2]; 2.0 μM
  Protection From Toxic Injury: Yes
Rat hepatocytes [2]; 10 μM
  Protection From Toxic Injury: Yes
Rat hepatocytes [2]; 25 μM
  Protection From Toxic Injury: Yes
Rat hepatocytes [2]; 250 μM
  Protection From Toxic Injury: Yes
Rat hepatocytes [2]; 50 mM EMS + 25 μM alpha-TS
  Cell Death: 30 ± 7%
Rat hepatocytes [2]; [6]
  Cell Death: 52 ± 3%
Rat hepatocytes [2]; [7]
  Cell Death: 58 ± 8%
Rat hepatocytes [2]; 50 mM EMS, 5 Hrs, alpha-TS 25, methyl ester 50, cholesteryl succinate 100, monomethyl/dimethyl succinate 250 μM
  Cell Death: 27 ± 1%
Rat hepatocytes [2]; .5 μM
  Protection From Toxic Injury: Yes
Rat hepatocytes [2]; EMS 50 mM, 25 μM alpha-TS (no alpha-TS 68)
  % Cell Death: 25%
Rat hepatocytes [2]; 5 h, read-out: Percent Cytoprotection, 25 μM, 50 mM EMS, 5 h
  inhibition at 25 µM: 92 ± 3%
Rat hepatocytes [2]; read-out: % Protection, 25 μM, 50 mM EMS
  inhibition at 25 µM: 100%
Rat hepatocytes [2]; [8]
  protection from lethal effects of EMS: protected both rat and canine hepatocytes from the lethal effects
[3]; 10 μM
  tumor cell growth: inhibits tumor cell growth
[3]
  morphological differentiation: induce morphological differentiation
[4]
  tumor cell growth: inhibits tumor cell growth
Rat hepatocytes [5]; 95% Oxygen, 25 μM alpha-TS (no alpha-TS 57)
  % Cell Death: 23%
Rat hepatocytes [5]; CCl4 2.5 mM, 25 μM alpha-TS (no alpha-TS 63)
  % Cell Death: 38%
Rat hepatocytes [5]; Cadmium 0.1 mM, 25 μM alpha-TS (no alpha-TS 70)
  % Cell Death: 24%
Rat hepatocytes [5]; Doxorubicin 100 μM, 25 μM alpha-TS (no alpha-TS 62)
  % Cell Death: 28%
Rat hepatocytes [5]; Hypoxia 4 hrs N2 and 2 hrs O2, 25 μM alpha-TS (no alpha-TS 70)
  % Cell Death: 49%
Rat hepatocytes [5]; Ionophore A23187 5 μM, 25 μM alpha-TS (no alpha-TS 73)
  % Cell Death: 24%
Rat hepatocytes [5]; rat hepatocytes, 25 μM, 5 μM A23187
  protection from lethal effects of ionophore A23187: protected rat hepatocytes from the lethal effects
